Experimental data: ChEMBL document CHEMBL5550185, “Targeting hTERT Promoter G-Quadruplex DNA Structures with Small-Molecule Ligand to Downregulate hTERT Expression for Triple-Negative Breast Cancer Therapy” (J Med Chem, 2024)
Active and inactive are the calls of the source. The calls are words filed in the database; no cut-off is given here.

Columns and labels:
DNA = assay: Binding affinity to Ds26 duplex DNA (unknown origin) assessed as change in gibbs free energy at 400 uM by ITC analysis; assay type: nucleic-acid assay
PC-3 = assay: Cytotoxicity against telomerase-positive human PC-3 cells assessed as inhibition of cell growth incubated for 48 hrs by MTT assay; assay type: functional, cell-based; settings: PC-3, 48 h
Quadruplex DNA [1] = assay: Binding affinity to c-MYC Pu27 G4 DNA (unknown origin) assessed as dissociation constant by ITC analysis; assay type: nucleic-acid assay
Quadruplex DNA [2] = assay: Binding affinity to c-MYC Pu27 G4 DNA (unknown origin) assessed as change in enthalpy at 400 uM by ITC analysis; assay type: nucleic-acid assay
Quadruplex DNA [3] = assay: Binding affinity to Telo21 G4 DNA (unknown origin) assessed as dissociation constant by ITC analysis; assay type: nucleic-acid assay
[4] = Binding affinity to antisense i-hTERT DNA assessed as dissociation constant by ITC analysis; design: species or system Homo sapiens
Quadruplex DNA [5] = assay: Binding affinity to hTERT G4 DNA assessed as change in gibbs free energy at 400 uM by ITC analysis; assay type: nucleic-acid assay; settings: Homo sapiens
[6] = Selectivity ratio of binding affinity to human TERT G4 DNA to binding affinity to 4a4t duplex DNA (unknown origin)
[7] = Selectivity ratio of binding affinity to human TERT G4 DNA to binding affinity to Ds26 duplex DNA (unknown origin)
Quadruplex DNA [8] = assay: Binding affinity to human TERT G4 DNA assessed as adduct formation by measuring appearance of new peak at 5 uM by ultraviolet spectrophotometric titration method; assay type: nucleic-acid assay
Quadruplex DNA [9] = assay: Binding affinity to G4 DNA in telomerase-positive live human MDA-MB-231 cells assessed as colocalization of BG4 and compound at 5 uM incubated for 2 hrs by immunofluorescence assay; assay type: cell-based
MDA-MB-231 [10] = assay: Induction of mitochondrial dysfunction in human MDA-MB-231 cells assessed as downregulation of mitochondrial respiratory complex I-NDUFB8 expression incubated for 48 hrs by Western blot analysis; assay type: functional, cell-based; settings: dose 0-1.5 µM
MDA-MB-231 [11] = assay: Induction of mitochondrial dysfunction in human MDA-MB-231 cells assessed as downregulation of mitochondrial respiratory complex II-SDHB expression incubated for 48 hrs by Western blot analysis; assay type: functional, cell-based; settings: dose 0-1.5 µM
MDA-MB-231 [12] = assay: Disruption of energy metabolism in human MDA-MB-231 cells assessed as increase in ECAR at 0 to 1.5 uM measured after 2 hrs by Seahorse XF24 analyzer; assay type: functional, cell-based; settings: dose 0-1.5 µM
MDA-MB-231 [13] = assay: Upregulation of glycolysis metabolic pathway in human MDA-MB-231 cells assessed as fold increase at 1.5 uM measured after 2 hrs by Seahorse XF24 analyzer relative to control; assay type: functional
MDA-MB-231 [14] = assay: Downregulation of p62 protein expression in human MDA-MB-231 cells at 0 to 1.5 uM measured after 48 hrs by Western blot analysis; assay type: functional, cell-based; settings: dose 0-1.5 µM
MDA-MB-231 [15] = assay: Downregulation of ND5 gene expression in human MDA-MB-231 cells at 1 uM measured after 48 hrs by RNA-seq analysis; assay type: functional, cell-based
MDA-MB-231 [16] = assay: Downregulation of ND6 gene expression in human MDA-MB-231 cells at 1 uM measured after 48 hrs by RNA-seq analysis; assay type: functional, cell-based
[17] = Upregulation of TGFB2 gene expression in human MDA-MB-231 cells assessed as fold change at 1 uM measured after 48 hrs by RNA-seq analysis relative to control; assay type: functional
[18] = Upregulation of EGF gene expression in human MDA-MB-231 cells assessed as fold change at 1 uM measured after 48 hrs by RNA-seq analysis relative to control; assay type: functional
[19] = Upregulation of HLA-B gene expression in human MDA-MB-231 cells assessed as fold change at 1 uM measured after 48 hrs by RNA-seq analysis relative to control; assay type: functional
[20] = Upregulation of HLA-E gene expression in human MDA-MB-231 cells assessed as fold change at 1 uM measured after 48 hrs by RNA-seq analysis relative to control; assay type: functional
[21] = Upregulation of HLA-F gene expression in human MDA-MB-231 cells assessed as fold change at 1 uM measured after 48 hrs by RNA-seq analysis relative to control; assay type: functional
[22] = Upregulation of CCND2 gene expression in human MDA-MB-231 cells assessed as fold change at 1 uM measured after 48 hrs by RNA-seq analysis relative to control; assay type: functional
[23] = Upregulation of NFATC4 gene expression in human MDA-MB-231 cells assessed as fold change at 1 uM measured after 48 hrs by RNA-seq analysis relative to control; assay type: functional
[24] = Upregulation of HMOX1 gene expression in human MDA-MB-231 cells assessed as fold change at 1 uM measured after 48 hrs by RNA-seq analysis relative to control; assay type: functional
[25] = Upregulation of MAP1LC3B gene expression in human MDA-MB-231 cells assessed as fold change at 1 uM measured after 48 hrs by RNA-seq analysis relative to control; assay type: functional
MDA-MB-231 [26] = assay: Antitumor activity against human MDA-MB-231 cells xenografted in female Balb/c mouse assessed as inhibition of tumor cell proliferation at 5 mg/kg, iv administered via tail vein every 2 days for 16 days by TUNEL assay; assay type: functional, organism-based; settings: time 16.0 day
[27] = Toxicity in female Balb/c nude mouse xenografted with human MDA-MB-231 cells assessed as change in granulocyte count at 2 to 5 mg/kg, iv administered via tail vein every 2 days for 16 days; assay type: organism-based; settings: in vivo, 384 h, dose 2-5 mg/kg, time 16 day
[28] = Toxicity in female Balb/c nude mouse xenografted with human MDA-MB-231 cells assessed as change in mean corpuscular volume at 2 to 5 mg/kg, iv administered via tail vein every 2 days for 16 days; assay type: organism-based; settings: in vivo, 384 h, dose 2-5 mg/kg, time 16 day
[29] = Toxicity in female Balb/c nude mouse xenografted with human MDA-MB-231 cells assessed as pathological changes in liver at 2 to 5 mg/kg, iv administered via tail vein every 2 days for 16 days by H and E staining based analysis; assay type: organism-based; settings: in vivo, 384 h, dose 2-5 mg/kg, time 16 day
[30] = Toxicity in female Balb/c nude mouse xenografted with human MDA-MB-231 cells assessed as pathological changes in spleen at 2 to 5 mg/kg, iv administered via tail vein every 2 days for 16 days by H and E staining based analysis; assay type: organism-based; settings: in vivo, 384 h, dose 2-5 mg/kg, time 16 day

deltaG (DNA): -6.45 kcal/mol | Kd (Quadruplex DNA [1]): 14.7 µM | deltaH (Quadruplex DNA [2]): -2.44 kcal/mol | Kd (Quadruplex DNA [3]): 3.28 µM | Kd [4]: 2.79 µM | deltaG (Quadruplex DNA [5]): -8.11 kcal/mol | Selectivity ratio [6]: 3 | Selectivity ratio [7]: 3 | Activity (Quadruplex DNA [8]): Active
Structure (SMILES): C[n+]1c(/C=C/c2c[nH]c3ccccc23)cc(/C=C2\Sc3ccccc3N2CCCN2CCC(C(F)(F)F)CC2)c2ccccc21.[I-]
IC50 (PC-3): 2.5 µM | Activity (Quadruplex DNA [9]): Active | Activity (MDA-MB-231 [10]): Dose-Dependent Effect | Activity (MDA-MB-231 [11]): Dose-Dependent Effect | Activity (MDA-MB-231 [12]): Active | fold change (FC) (MDA-MB-231 [13]): >0.8 | Activity (MDA-MB-231 [14]): Active | Activity (MDA-MB-231 [15]): Active | Activity (MDA-MB-231 [16]): Active | fold change (FC) [17]: >2 | fold change (FC) [18]: >2 | fold change (FC) [19]: >2 | fold change (FC) [20]: >2 | fold change (FC) [21]: >2 | fold change (FC) [22]: >2 | fold change (FC) [23]: >2 | fold change (FC) [24]: >2 | fold change (FC) [25]: >2 | Activity (MDA-MB-231 [26]): Active | Activity [27]: Non-Toxic | Activity [28]: Non-Toxic | Activity [29]: Non-Toxic | Activity [30]: Non-Toxic
